According to ChEMBL document CHEMBL1148891, “New syntheses of tetrazolylmethylphenylalanine and O-malonyltyrosine as pTyr mimetics for the design of STAT3 dimerization inhibitors” (Bioorg Med Chem Lett, 2007):
Starred links: 1 amine or outer side, 2 acyl side, 3 side chain; linkers in the order of their positions; H or OH if unused. Non-standard residues stand in square brackets, D forms with d. Residues, ends and D or L forms follow the SMILES beside them. Phe(4-tetrazol-5-yl) = N[C@@H](Cc1ccc(-c2nnn[nH]2)cc1)C(=O)O; X1 = O=C([C@H](Cc1ccc(Cc2nn[nH]n2)cc1)N[*:1])[*:2]

Molecular target: Signal transducer and activator of transcription 3 (Homo sapiens, UniProt P40763)
Sequence (P40763 whole entry): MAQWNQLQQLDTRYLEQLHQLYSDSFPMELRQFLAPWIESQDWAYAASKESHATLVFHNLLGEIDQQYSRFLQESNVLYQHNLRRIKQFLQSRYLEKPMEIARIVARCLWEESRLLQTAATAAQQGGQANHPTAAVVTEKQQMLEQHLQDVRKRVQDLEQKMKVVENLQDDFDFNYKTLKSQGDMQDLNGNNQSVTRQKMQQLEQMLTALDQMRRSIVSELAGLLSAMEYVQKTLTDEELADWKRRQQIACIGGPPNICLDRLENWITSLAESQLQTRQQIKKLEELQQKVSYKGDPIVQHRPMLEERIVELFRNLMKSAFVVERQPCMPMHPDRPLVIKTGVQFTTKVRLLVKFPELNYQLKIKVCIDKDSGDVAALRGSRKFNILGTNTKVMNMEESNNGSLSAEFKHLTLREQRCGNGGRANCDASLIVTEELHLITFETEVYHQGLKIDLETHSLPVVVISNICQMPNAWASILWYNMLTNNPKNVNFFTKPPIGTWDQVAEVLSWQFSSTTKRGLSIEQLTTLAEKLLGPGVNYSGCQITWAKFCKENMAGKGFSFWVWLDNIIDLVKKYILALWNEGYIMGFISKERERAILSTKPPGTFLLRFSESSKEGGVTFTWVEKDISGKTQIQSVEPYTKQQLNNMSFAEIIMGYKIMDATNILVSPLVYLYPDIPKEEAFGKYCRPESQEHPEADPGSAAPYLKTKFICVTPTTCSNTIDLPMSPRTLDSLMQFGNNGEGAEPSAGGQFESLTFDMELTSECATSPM
Assay: Inhibition of STAT3 dimer DNA binding activity by ELISA after 30 mins

| SMILES | IC50 [µM] |
| --- | --- |
| CC(=O)N[C@@H](Cc1ccc(-c2nnn[nH]2)cc1)C(=O)N[C@@H](CC(C)C)C(=O)N1CCC[C@H]1C(=O)N[C@@H](CCC(N)=O)C(=O)N[C@H](C(=O)N[C@H](C(=O)O)C(C)C)[C@@H](C)O (Ac-[Phe(4-tetrazol-5-yl)]LPQTV-OH) | > 0.8 |
| CC(=O)N[C@@H](Cc1ccc(Cc2nn[nH]n2)cc1)C(=O)N[C@@H](CC(C)C)C(=O)N1CCC[C@H]1C(=O)N[C@@H](CCC(N)=O)C(=O)N[C@H](C(=O)N[C@H](C(=O)O)C(C)C)[C@@H](C)O (Ac-[X1]LPQTV-OH) | > 1 |
